Results on one sequence are retold here after US9457044B2, “Methods and compositions for wound healing” (CoDa Therapeutics, Inc., priority 2006, dated 2016).

One data set concerns fibroblast like cells. The data set can be described thus: Fibroblast-like cell count at wound margin (rhodamine phalloidin/DAPI). It is filed as in vivo, mice. The conditions noted are these: 2 day wounds; P<0.01. As for the experimental part:
(§1) Male, 8 week old, ICR mice were used in the following experiments. All the mice were kept under specific pathogen-free conditions in an environmentally controlled clean room at University College London and all the experiments were carried out under UK Home Office regulations. Mice were anaesthetized by halothane inhalation. Four full-thickness excisional wounds of 6 mm diameter were made on the shaved back on either side of the dorsal midline with a 6 mm biopsy punch (Kai Industries). To each pair of wounds a single topical application of 50 μl of 1 μM Cx43 as ODN (SEQ. ID No. 2) (Sigma-Genosys) in 30% Pluronic F-127 gel (Sigma-Aldrich), chilled on ice, was made to one wound, and an identical application of 1 μM sense control sODNs was made to the other. […] R. and Becker, D. L. (2003). Targeting connexin 43 expression accelerates the rate of wound repair. Curr Biol 13, 1697-703). Each wound region was digitally photographed at the indicated time intervals, and the areas of the wounds were calculated. All wound areas were expressed as percentages of the initial wound areas. […]
(§2) A treatment-blinded observer counted MPO-positive neutrophils and F4/80-positive macrophages in the wound bed (defined as the area surrounded by unwounded skin, fascia, regenerated epidermis, and eschar) in 3 random high-power fields of 0.332 mm^2. […]

The subject of the next data set is apoptotic cells. The data set can be described thus: TUNEL staining of granulation tissue. Format: in vivo, mice. The conditions noted are these: 5, 7 and 10 days after wounding. As for the experimental part:
as §1
Wound tissues were fixed in 4% formaldehyde buffered with PBS, and embedded in paraffin and sectioned. […] TUNEL stained section were imaged and positive cells were counted in the granulation tissue in three random fields, in the two sides and center of each wound (each field was 0.332 mm2).

For another data set, the system named is Cx43 protein. The data set can be described thus: Cx43 protein levels / immunostaining at skin wound sites. It is filed as in vivo, mice. As for the experimental part: Male, 8 week old, ICR mice were used in the following experiments. All the mice were kept under specific pathogen-free conditions in an environmentally controlled clean room at University College London and all the experiments were carried out under UK Home Office regulations. Mice were anaesthetized by halothane inhalation. Four full-thickness excisional wounds of 6 mm diameter were made on the shaved back on either side of the dorsal midline with a 6 mm biopsy punch (Kai Industries). To each pair of wounds a single topical application of 50 μl of 1 μM Cx43 as ODN (SEQ. ID No. 2) (Sigma-Genosys) in 30% Pluronic F-127 gel (Sigma-Aldrich), chilled on ice, was made to one wound, and an identical application of 1 μM sense control sODNs was made to the other. […] R. and Becker, D. L. (2003). Targeting connexin 43 expression accelerates the rate of wound repair. Curr Biol 13, 1697-703). Each wound region was digitally photographed at the indicated time intervals, and the areas of the wounds were calculated. All wound areas were expressed as percentages of the initial wound areas. In some series of experiments, wounds and their surrounding area, including the scab and epithelial margins, were harvested with an 8 mm biopsy punch (Kai Industries) at the indicated time intervals after mice were killed with an overdose of chloroform. A minimum of eight mice were used for each time point examined.
Immunostaining for connexin 43, blood vessels or a smooth muscle actin was carried out on cryostat sections of wounds. Sections were fixed in acetone at 4° C. for 5 minutes prior to blocking for 45 minutes. Incubation in primary antibody was for one hour at the following dilutions: rabbit anti-Cx43 (Sigma) 1:3,000; isoLectin B_FITC 1:2000; von Willebrand Factor (rabbit Dako) 1:400; anti-α smooth muscle actin (Sigma) 1:400 at room temperature. Sections were washed for 3×5 minutes in PBS before a one hour incubation in anti-rabbit-FITC secondary antibody (Dako) 1:200 at room temperature. Washing 3×5 minutes in PBS, in some cases with 1 μM bis-benzimide (Sigma) in the first wash as a nuclear counter stain, and mounted in Citifluor (Citifluor, London, UK). Sections were imaged by confocal microscopy with all parameters kept constant to allow direct comparison of digital images.

The test system of a further data set is Swiss 3T3 fibroblasts. The data set can be described thus: Cell migration assay by wounding (fibroblast scrape wound assay). It is filed as cell-based. The conditions noted are these: 20 μM for two hours before scrape wound; 4 hours after wounding. As for the experimental part:
Swiss 3T3 fibroblasts were grown in Dulbecco's modified Eagle's medium (DMEM; Gibco) supplemented with 10% fetal calf serum (Labtech) and 1% penicillinstreptomycin solution (Sigma, Poole) in a 5% CO2 incubator at 37° C. Unless otherwise stated, the cells were maintained in this medium for most experiments. The cells were passaged by trypsinization and used at passages 6-10 at a confluency of Z 90%. Cells were plated on 13 mm glass coverslips in 24-well dishes (Nunc) with 4−5×10^5 cells per well containing 1 ml of medium. Cells reached confluency after 72 hours and were then used for experimentation.
The fibroblast cell assay involved creating a “wound” in a confluent monolayer of fibroblast cells. This widely used in vitro technique mimics the behaviour of migrating cells in vivo (Lampugnani, M. G. (1999) Cell Migration into a wounded area in vitro. Methods Mol Biol 96: 177-182). Wounding was performed by drawing a microelectrode across the coverslip, producing a lesion of standard width. Phase contrast images were acquired using a ×5 objective on a Zeiss inverted microscope with an incubation chamber at 370 and 5% CO2. […] Migration was quantified by image analysis, measuring the change in wound area (pixels) using Image J software (NIH). […]

A further data set relates to MPO-positive neutrophils. The data set can be described thus: Neutrophil recruitment into wound site (anti-MPO staining). It is filed as in vivo, mice. The conditions noted are these: day 1 and 2, versus control. As for the experimental part: as §1, §2

With “GTAATTGCGGCAGGAGGAATTGTTTCTGTC (antisense GTAATTGCGGCAGGAGGAATTGTTTCTGTC; in Pluronic F-127 gel, further chemistry not given here) [Cx43 asODN]”, the “number of elongated fibroblast like cells at the wound margin (mean per field)” value in the data set with fibroblast like cells was 99.2. The “numbers of TUNEL positive cells, control versus treated” value in the data set with apoptotic cells is recorded as “no significant differences”. Besides, the “Cx43 protein immunostaining in epidermis and dermis of wound edge” value in the data set with Cx43 protein (day 1, compared to controls) is given as “very low levels”. For the same sequence, the “Cx43 protein immunostaining of wound” value in the data set with Cx43 protein (day 2) is on record as “some Cx43 staining had returned to the dermis of the Cx43 asODN-treated wound but the level was still very low in the epidermis”. Besides, the “Cx43 staining, treated versus untreated” value with Cx43 protein (day 7) was “no obvious difference”. The “duration of Cx43 protein down-regulation in wound-site epidermis and dermis” value with Cx43 protein (delivered from Pluronic F-127 slow-release gel) is recorded as “at least 24 hours”. For the same sequence, the “protein levels of Cx43 in the epidermis and dermis” value in the data set on Cx43 protein (within two hours of treatment, delivery from the time of injury) was “markedly reduced”. Moreover, the “rate of wound closure in fibroblast cultures compared to controls” value in the data set with Swiss 3T3 fibroblasts was “significantly (P=0.02) enhanced”. In addition, the “neutrophil numbers at wound site” value with MPO-positive neutrophils is on record as “significantly reduced”.
